Data taken from the NIST ThermoML archive (doi:10.1016/j.jct.2013.01.010).

Assays:
[1] = xn = mol fraction of the nth substance listed; conditions: 101 kPa, Liquid; for speed of sound: Sing-around technique in a fixed-path interferometer; for mass density: Vibrating tube method
[2] = excess molar enthalpy (molar enthalpy of mixing); xn = mol fraction of the nth substance listed; conditions: 298.15 K, 101 kPa, Liquid, 2-Drop Calorimetry

CCn1cc[n+](C)c1.F[B-](F)(F)F [1-ethyl-3-methylimidazolium tetrafluoroborate] + CC(C)=O
[1]
Conditions	mass density, 293.15 K [kg/m3]	mass density, 298.15 K [kg/m3]	mass density, 303.15 K [kg/m3]	mass density, 308.15 K [kg/m3]	speed of sound, 293.15 K [m/s]	speed of sound, 298.15 K [m/s]	speed of sound, 303.15 K [m/s]	speed of sound, 308.15 K [m/s]
x1 = 0.1214	933.27	928.61	923.44	918.15	1241.1	1221	1193.4	1172.8
x1 = 0.1789	987.63	983.61	978.74	973.95	1280.4	1261.7	1233.4	1211.1
x1 = 0.2147	1017.82	1013.85	1009.37	1004.85	1307.6	1290.7	1262.9	1238.4
x1 = 0.2813	1066.88	1063.3	1059.25	1055.19	1360.4	1349.9	1321.9	1295.2
x1 = 0.3219	1092.73	1089.56	1085.84	1082.01	1394.1	1386.6	1358.3	1331
x1 = 0.3649	1117.49	1114.19	1110.78	1107.15	1429.2	1423.4	1398.5	1367.9
x1 = 0.4193	1144.91	1141.69	1138.75	1135.16	1473.1	1469.1	1449.6	1417.4
x1 = 0.4714	1167.62	1164.64	1161.69	1158.46	1507.7	1510.2	1490.7	1458.4
x1 = 0.5217	1186.9	1183.85	1181.07	1177.84	1539.7	1539.6	1526.3	1498
x1 = 0.5772	1205.54	1202.14	1199.7	1196.16	1566	1566.1	1559.2	1531
x1 = 0.6319	1221.27	1217.91	1215.28	1211.72	1583	1585.4	1579.8	1558.2
x1 = 0.6768	1232.69	1229.09	1226.6	1222.91	1593.5	1591.6	1587.6	1574.7
x1 = 0.7199	1242.54	1238.8	1236.06	1232.31	1601.6	1596.9	1594	1587.8
x1 = 0.7724	1252.97	1249.12	1246.25	1242.25	1604.7	1595.8	1592.9	1595.8
x1 = 0.8304	1263	1258.91	1255.95	1251.74	1607.5	1595.9	1591.6	1597.6
x1 = 0.8766	1269.84	1265.74	1262.51	1258.3	1610	1595.9	1589.9	1597.6
x1 = 0.9011	1273.08	1268.96	1265.71	1261.43	1612.6	1596.6	1589.4	1597.9
x1 = 0.9203	1275.47	1271.38	1267.99	1263.7	1614.6	1599	1591	1597.3

[2]
Conditions	excess molar enthalpy [kcal/mol]
x1 = 0.0987	-0.0136
x1 = 0.1451	-0.0198
x1 = 0.1991	-0.0272
x1 = 0.2547	-0.0339
x1 = 0.3012	-0.038
x1 = 0.3428	-0.0423
x1 = 0.3984	-0.0461
x1 = 0.4425	-0.0483
x1 = 0.4851	-0.0497
x1 = 0.5335	-0.0502
x1 = 0.6021	-0.048
x1 = 0.6689	-0.0454
x1 = 0.7148	-0.0418
x1 = 0.7723	-0.0359
x1 = 0.8227	-0.0289
x1 = 0.8769	-0.0213
x1 = 0.9012	-0.0174
x1 = 0.9113	-0.016

CCn1cc[n+](C)c1.F[B-](F)(F)F [1-ethyl-3-methylimidazolium tetrafluoroborate] + C[S+](C)[O-]
[1]
Conditions	mass density, 293.15 K [kg/m3]	mass density, 298.15 K [kg/m3]	mass density, 303.15 K [kg/m3]	mass density, 308.15 K [kg/m3]	speed of sound, 293.15 K [m/s]	speed of sound, 298.15 K [m/s]	speed of sound, 303.15 K [m/s]	speed of sound, 308.15 K [m/s]
x1 = 0.1319	1154.13	1149.63	1145.2	1140.37	1533	1514.8	1498.7	1481.3
x1 = 0.1819	1170.55	1166.13	1161.81	1157.02	1544.4	1526.6	1510.3	1492.8
x1 = 0.2336	1185.68	1181.3	1177.06	1172.25	1556.2	1538.6	1522.2	1504.7
x1 = 0.2909	1200.5	1196.12	1191.89	1187.15	1567.8	1551	1535.1	1517.4
x1 = 0.3417	1212.05	1207.64	1203.45	1198.76	1577.3	1561.5	1545.4	1528.1
x1 = 0.3799	1219.83	1215.48	1211.24	1206.59	1584	1568.7	1552.3	1535.9
x1 = 0.4215	1227.57	1223.18	1219.02	1214.39	1589.9	1575.8	1559.5	1543.2
x1 = 0.4719	1236	1231.61	1227.4	1222.88	1596.3	1583.7	1567.7	1552
x1 = 0.5335	1244.97	1240.56	1236.44	1232.02	1602.8	1591.2	1575.8	1560.5
x1 = 0.5782	1250.68	1246.29	1242.17	1237.86	1606.2	1595.6	1580.4	1566.1
x1 = 0.6198	1255.44	1251.13	1247.04	1242.76	1608.8	1598.6	1584.3	1571
x1 = 0.6717	1260.78	1256.5	1252.45	1248.28	1611	1601.8	1588.6	1575.9
x1 = 0.7204	1265.23	1260.99	1257	1252.91	1613	1604.4	1591.7	1579.7
x1 = 0.7737	1269.58	1265.39	1261.48	1257.45	1614.7	1606.4	1594.6	1583.2
x1 = 0.8219	1273.1	1268.95	1265.1	1261.11	1616.4	1607.9	1596.8	1586
x1 = 0.8783	1276.82	1272.74	1268.97	1264.97	1619.2	1610.3	1599.7	1588.9
x1 = 0.9041	1278.42	1274.36	1270.62	1266.61	1621	1611.6	1601.1	1590.4
x1 = 0.9249	1279.65	1275.62	1271.9	1267.87	1622.6	1612.9	1602.2	1591.6

[2]
Conditions	excess molar enthalpy [kcal/mol]
x1 = 0.1116	-0.104
x1 = 0.1785	-0.159
x1 = 0.2157	-0.192
x1 = 0.2854	-0.233
x1 = 0.3259	-0.256
x1 = 0.3981	-0.281
x1 = 0.4368	-0.285
x1 = 0.4852	-0.29
x1 = 0.5111	-0.291
x1 = 0.5729	-0.281
x1 = 0.6255	-0.26
x1 = 0.6899	-0.232
x1 = 0.7365	-0.208
x1 = 0.7943	-0.168
x1 = 0.8338	-0.137
x1 = 0.8896	-0.0906
x1 = 0.9012	-0.0839
x1 = 0.9258	-0.0619
